Several values for one entry are separate records, joined by “and”; a condition that tells them apart may be missing. Equal values may be shown once.

Chain of BRSK1 (human) (Q8TDC3 whole entry, looked up): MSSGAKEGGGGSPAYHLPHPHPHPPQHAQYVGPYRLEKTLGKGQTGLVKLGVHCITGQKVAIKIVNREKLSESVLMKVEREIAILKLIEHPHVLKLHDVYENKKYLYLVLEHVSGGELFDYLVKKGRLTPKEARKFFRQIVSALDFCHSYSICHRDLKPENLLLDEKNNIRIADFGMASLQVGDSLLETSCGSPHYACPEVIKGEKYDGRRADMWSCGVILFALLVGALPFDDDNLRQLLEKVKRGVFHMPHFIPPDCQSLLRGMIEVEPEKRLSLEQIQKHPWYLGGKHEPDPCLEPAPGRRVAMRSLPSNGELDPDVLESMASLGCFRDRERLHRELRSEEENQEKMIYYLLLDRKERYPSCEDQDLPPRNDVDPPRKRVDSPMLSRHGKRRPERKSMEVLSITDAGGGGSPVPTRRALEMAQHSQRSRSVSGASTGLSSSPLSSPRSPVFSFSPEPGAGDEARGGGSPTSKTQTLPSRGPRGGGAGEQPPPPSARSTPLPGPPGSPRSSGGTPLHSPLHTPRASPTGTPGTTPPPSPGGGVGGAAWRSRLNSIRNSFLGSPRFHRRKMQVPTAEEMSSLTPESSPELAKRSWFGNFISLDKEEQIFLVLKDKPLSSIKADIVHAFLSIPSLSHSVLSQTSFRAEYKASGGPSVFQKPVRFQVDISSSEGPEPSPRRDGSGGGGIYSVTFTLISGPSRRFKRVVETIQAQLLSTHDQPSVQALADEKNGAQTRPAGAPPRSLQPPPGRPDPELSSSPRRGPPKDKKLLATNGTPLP
Chain of LYN (human) (P07948 whole entry, looked up): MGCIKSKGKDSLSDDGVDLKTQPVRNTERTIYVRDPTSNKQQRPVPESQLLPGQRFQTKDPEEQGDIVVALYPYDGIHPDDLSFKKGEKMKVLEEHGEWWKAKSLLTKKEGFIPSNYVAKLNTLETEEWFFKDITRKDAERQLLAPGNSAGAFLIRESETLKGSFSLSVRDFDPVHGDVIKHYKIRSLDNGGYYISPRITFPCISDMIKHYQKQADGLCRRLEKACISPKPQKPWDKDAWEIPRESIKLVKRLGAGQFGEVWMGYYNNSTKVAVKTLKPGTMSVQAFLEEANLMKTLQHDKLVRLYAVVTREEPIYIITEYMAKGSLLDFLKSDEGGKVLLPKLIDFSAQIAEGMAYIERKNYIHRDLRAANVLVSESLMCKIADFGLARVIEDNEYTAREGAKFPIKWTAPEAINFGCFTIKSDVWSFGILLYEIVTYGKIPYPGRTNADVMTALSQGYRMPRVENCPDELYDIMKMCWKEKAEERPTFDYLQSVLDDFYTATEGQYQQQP
Chain of FGFR3 (human) (P22607 whole entry, looked up): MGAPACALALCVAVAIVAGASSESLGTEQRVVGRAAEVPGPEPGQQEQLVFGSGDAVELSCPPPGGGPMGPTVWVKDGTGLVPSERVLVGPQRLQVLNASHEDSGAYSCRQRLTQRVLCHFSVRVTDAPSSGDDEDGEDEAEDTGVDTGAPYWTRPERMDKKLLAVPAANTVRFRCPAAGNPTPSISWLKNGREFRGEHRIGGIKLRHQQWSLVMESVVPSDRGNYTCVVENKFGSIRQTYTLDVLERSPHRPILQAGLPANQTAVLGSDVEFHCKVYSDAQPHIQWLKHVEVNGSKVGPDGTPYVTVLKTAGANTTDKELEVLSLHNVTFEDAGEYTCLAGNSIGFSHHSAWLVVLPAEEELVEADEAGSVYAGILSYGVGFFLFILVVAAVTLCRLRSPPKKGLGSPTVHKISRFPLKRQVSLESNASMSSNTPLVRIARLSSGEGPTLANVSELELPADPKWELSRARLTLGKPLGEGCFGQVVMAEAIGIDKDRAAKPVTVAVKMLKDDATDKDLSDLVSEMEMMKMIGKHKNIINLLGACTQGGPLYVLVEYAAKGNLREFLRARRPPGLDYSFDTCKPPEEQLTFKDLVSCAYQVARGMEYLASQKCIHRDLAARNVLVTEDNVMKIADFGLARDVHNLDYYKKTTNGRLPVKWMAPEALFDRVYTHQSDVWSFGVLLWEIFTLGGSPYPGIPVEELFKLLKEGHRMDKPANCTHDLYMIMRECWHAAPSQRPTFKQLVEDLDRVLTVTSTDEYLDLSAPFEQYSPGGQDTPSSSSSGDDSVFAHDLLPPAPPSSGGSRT

One assay addresses ADRBK2 (human) (UniProt P35626). The assay can be described thus: radiometric filter-binding kinase assay, Kinase HotSpot. The conditions noted are these: compound 0.5 µM; ATP 10 µM.
As to `CNc1cc2c(Nc3cccc(Br)c3)ncnc2cn1`, the residual activity (usually the signal under treatment as a percentage of the control signal) is 101%.

With `O=C1Nc2ccc(Cl)cc2/C1=C/c1cc(Cl)c(O)c(Cl)c1`, the residual activity is 102%.

`O=C1NC(=O)/C(=C/c2ccc3c(c2)OC(F)(F)O3)S1`: the residual activity amounted to 102%.

A further assay has as its target AXL (human) (UniProt P30530). Described as above. Particulars: compound 0.5 µM; ATP 10 µM.
On to `CNc1cc2c(Nc3cccc(Br)c3)ncnc2cn1`, for which the residual activity was determined as 98.6%.

As for `O=C1Nc2ccc(Cl)cc2/C1=C/c1cc(Cl)c(O)c(Cl)c1`, the residual activity stood at 106%.

Consider `O=C1NC(=O)/C(=C/c2ccc3c(c2)OC(F)(F)O3)S1`, for which the residual activity was 107%.

The next assay concerns the target BRSK1 (human) (UniProt Q8TDC3). Described as above. The conditions noted are these: compound 0.5 µM; ATP 10 µM.
Take `CNc1cc2c(Nc3cccc(Br)c3)ncnc2cn1`: the residual activity is 91.2%.

Consider `O=C1Nc2ccc(Cl)cc2/C1=C/c1cc(Cl)c(O)c(Cl)c1`, for which the residual activity came out at 81.3%.

As to `O=C1NC(=O)/C(=C/c2ccc3c(c2)OC(F)(F)O3)S1`, the residual activity was determined as 88%.

The target in the next assay is CDK9 CCNT1 (human) (UniProt P50750+O60563). The description is as above. Particulars: compound 0.5 µM; ATP 10 µM.
Chain of CDK9 CCNT1 (human) (O60563 whole entry, looked up): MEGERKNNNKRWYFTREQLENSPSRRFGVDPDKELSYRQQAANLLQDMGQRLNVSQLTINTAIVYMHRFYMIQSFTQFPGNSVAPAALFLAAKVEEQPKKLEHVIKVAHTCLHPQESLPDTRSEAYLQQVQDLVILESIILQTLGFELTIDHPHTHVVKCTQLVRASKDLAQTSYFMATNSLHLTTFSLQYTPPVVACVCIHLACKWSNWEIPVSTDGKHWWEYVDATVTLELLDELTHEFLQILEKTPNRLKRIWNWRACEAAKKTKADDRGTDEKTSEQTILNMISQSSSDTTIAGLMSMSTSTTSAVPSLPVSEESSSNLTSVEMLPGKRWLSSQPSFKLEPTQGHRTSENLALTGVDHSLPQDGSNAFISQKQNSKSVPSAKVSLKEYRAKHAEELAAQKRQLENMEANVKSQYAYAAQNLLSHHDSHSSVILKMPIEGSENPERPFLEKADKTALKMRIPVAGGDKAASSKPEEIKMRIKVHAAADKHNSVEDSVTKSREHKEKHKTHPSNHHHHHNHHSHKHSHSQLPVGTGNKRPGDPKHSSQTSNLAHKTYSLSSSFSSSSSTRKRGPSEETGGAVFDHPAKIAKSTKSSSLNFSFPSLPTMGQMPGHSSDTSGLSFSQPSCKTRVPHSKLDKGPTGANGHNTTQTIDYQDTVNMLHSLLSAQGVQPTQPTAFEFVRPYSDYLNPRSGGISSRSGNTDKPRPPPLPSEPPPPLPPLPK
Chain of CDK9 CCNT1 (human) (P50750 whole entry, looked up): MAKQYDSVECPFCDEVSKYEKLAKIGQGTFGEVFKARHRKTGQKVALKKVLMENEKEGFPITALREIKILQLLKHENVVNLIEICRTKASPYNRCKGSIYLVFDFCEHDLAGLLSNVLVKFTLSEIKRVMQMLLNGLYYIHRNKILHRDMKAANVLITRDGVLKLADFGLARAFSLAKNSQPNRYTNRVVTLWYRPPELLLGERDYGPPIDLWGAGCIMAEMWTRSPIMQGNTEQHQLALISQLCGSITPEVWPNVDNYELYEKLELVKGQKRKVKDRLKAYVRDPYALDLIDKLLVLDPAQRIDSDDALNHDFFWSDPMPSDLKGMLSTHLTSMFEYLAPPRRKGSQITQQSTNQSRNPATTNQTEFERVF
Take `CNc1cc2c(Nc3cccc(Br)c3)ncnc2cn1`: the residual activity turned out to be 106%.

Turning to `O=C1Nc2ccc(Cl)cc2/C1=C/c1cc(Cl)c(O)c(Cl)c1`, the residual activity was 95.2%.

On to `O=C1NC(=O)/C(=C/c2ccc3c(c2)OC(F)(F)O3)S1`, for which the residual activity was 98.7%.

The next assay has as its target CLK3 (human) (UniProt P49761). Described as above. Particulars: compound 0.5 µM; ATP 10 µM.
Consider `CNc1cc2c(Nc3cccc(Br)c3)ncnc2cn1`, for which the residual activity was found to be 87.6%.

`O=C1Nc2ccc(Cl)cc2/C1=C/c1cc(Cl)c(O)c(Cl)c1`: the residual activity turned out to be 90.9%.

As to `O=C1NC(=O)/C(=C/c2ccc3c(c2)OC(F)(F)O3)S1`, the residual activity was 96.8%.

The next assay addresses CLK4 (human) (UniProt Q9HAZ1). The description is as above. Particulars: compound 0.5 µM; ATP 10 µM.
For `CNc1cc2c(Nc3cccc(Br)c3)ncnc2cn1`, the residual activity is 60.9%.

With `O=C1Nc2ccc(Cl)cc2/C1=C/c1cc(Cl)c(O)c(Cl)c1`, the residual activity stood at 60.7%.

For the compound `O=C1NC(=O)/C(=C/c2ccc3c(c2)OC(F)(F)O3)S1`, the residual activity was 88.8%.

For the next assay, the target named is CSNK1A1 (human) (UniProt P48729). The description is as above. The conditions noted are these: compound 0.5 µM; ATP 10 µM.
Chain of CSNK1A1 (human) (P48729 whole entry, looked up): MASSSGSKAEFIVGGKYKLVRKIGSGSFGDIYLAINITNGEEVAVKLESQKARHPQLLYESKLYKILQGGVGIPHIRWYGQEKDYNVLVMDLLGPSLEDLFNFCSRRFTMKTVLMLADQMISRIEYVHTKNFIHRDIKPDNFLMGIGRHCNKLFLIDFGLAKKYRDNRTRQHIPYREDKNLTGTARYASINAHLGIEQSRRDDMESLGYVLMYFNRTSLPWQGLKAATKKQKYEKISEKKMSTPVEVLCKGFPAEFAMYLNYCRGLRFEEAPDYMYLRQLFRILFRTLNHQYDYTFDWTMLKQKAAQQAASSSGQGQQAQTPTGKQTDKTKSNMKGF
As for `CNc1cc2c(Nc3cccc(Br)c3)ncnc2cn1`, the residual activity worked out at 125%.

On to `O=C1Nc2ccc(Cl)cc2/C1=C/c1cc(Cl)c(O)c(Cl)c1`, for which the residual activity was 92.6%.

On to `O=C1NC(=O)/C(=C/c2ccc3c(c2)OC(F)(F)O3)S1`, for which the residual activity stood at 88.4%.

Another assay concerns the target EPHB2 (human) (UniProt P29323). Described as above. Particulars: compound 0.5 µM; ATP 10 µM.
Turning to `CNc1cc2c(Nc3cccc(Br)c3)ncnc2cn1`, the residual activity amounted to 91.2%.

As to `O=C1Nc2ccc(Cl)cc2/C1=C/c1cc(Cl)c(O)c(Cl)c1`, the residual activity was 90.9%.

As for `O=C1NC(=O)/C(=C/c2ccc3c(c2)OC(F)(F)O3)S1`, the residual activity worked out at 95.8%.

Another assay addresses FGFR3 (human) (UniProt P22607). The description is as above. Particulars: compound 0.5 µM; ATP 10 µM.
`CNc1cc2c(Nc3cccc(Br)c3)ncnc2cn1`: the residual activity came to 85.4%.

As to `O=C1Nc2ccc(Cl)cc2/C1=C/c1cc(Cl)c(O)c(Cl)c1`, the residual activity came out at 94%.

Turning to `O=C1NC(=O)/C(=C/c2ccc3c(c2)OC(F)(F)O3)S1`, the residual activity came to 96.4%.

The next assay concerns the target GRK4 (human) (UniProt P32298). The description is as above. Particulars: compound 0.5 µM; ATP 10 µM.
As for `CNc1cc2c(Nc3cccc(Br)c3)ncnc2cn1`, the residual activity is 98.2%.

Regarding `O=C1Nc2ccc(Cl)cc2/C1=C/c1cc(Cl)c(O)c(Cl)c1`, the residual activity worked out at 108%.

As for `O=C1NC(=O)/C(=C/c2ccc3c(c2)OC(F)(F)O3)S1`, the residual activity amounted to 102%.

In a further assay the target is IRAK4 (human) (UniProt Q9NWZ3). Described as above. The conditions noted are these: compound 0.5 µM; ATP 10 µM.
Chain of IRAK4 (human) (Q9NWZ3 whole entry, looked up): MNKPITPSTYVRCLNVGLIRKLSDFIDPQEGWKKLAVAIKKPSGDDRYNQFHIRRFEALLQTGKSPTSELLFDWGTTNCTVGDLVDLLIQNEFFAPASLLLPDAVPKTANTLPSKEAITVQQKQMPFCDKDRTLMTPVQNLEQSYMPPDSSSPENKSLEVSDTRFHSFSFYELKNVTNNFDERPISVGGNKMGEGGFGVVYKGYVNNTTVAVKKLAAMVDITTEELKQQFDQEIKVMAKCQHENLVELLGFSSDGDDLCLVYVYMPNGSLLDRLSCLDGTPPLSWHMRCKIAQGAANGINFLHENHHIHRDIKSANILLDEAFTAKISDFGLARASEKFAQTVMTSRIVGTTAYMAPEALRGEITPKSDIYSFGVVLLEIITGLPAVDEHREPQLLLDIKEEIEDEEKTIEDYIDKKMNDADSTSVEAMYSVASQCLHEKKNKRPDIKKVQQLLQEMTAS
Turning to `CNc1cc2c(Nc3cccc(Br)c3)ncnc2cn1`, the residual activity amounted to 82.6%.

Regarding `O=C1Nc2ccc(Cl)cc2/C1=C/c1cc(Cl)c(O)c(Cl)c1`, the residual activity amounted to 101%.

For `O=C1NC(=O)/C(=C/c2ccc3c(c2)OC(F)(F)O3)S1`, the residual activity was determined as 99.2%.

The next assay addresses KIT (human) (UniProt P10721). The assay is described as above. Particulars: compound 0.5 µM; ATP 10 µM.
Take `CNc1cc2c(Nc3cccc(Br)c3)ncnc2cn1`: the residual activity came to 86.4%.

For the compound `O=C1Nc2ccc(Cl)cc2/C1=C/c1cc(Cl)c(O)c(Cl)c1`, the residual activity was found to be 35%.

As to `O=C1NC(=O)/C(=C/c2ccc3c(c2)OC(F)(F)O3)S1`, the residual activity is 93.4%.

The next assay concerns the target LYN (human) (UniProt P07948). The assay is described as above. Particulars: compound 0.5 µM; ATP 10 µM.
Turning to `CNc1cc2c(Nc3cccc(Br)c3)ncnc2cn1`, the residual activity is 63.9% and 81.9%.

As to `O=C1Nc2ccc(Cl)cc2/C1=C/c1cc(Cl)c(O)c(Cl)c1`, the residual activity was 81.6% and 87.5%.

For `O=C1NC(=O)/C(=C/c2ccc3c(c2)OC(F)(F)O3)S1`, the residual activity was 98.1% and 99.9%.

For the next assay, the target named is MAPK14 (human) (UniProt Q16539). The assay is described as above. The conditions noted are these: compound 0.5 µM; ATP 10 µM.
`CNc1cc2c(Nc3cccc(Br)c3)ncnc2cn1`: the residual activity was 90%.

Turning to `O=C1Nc2ccc(Cl)cc2/C1=C/c1cc(Cl)c(O)c(Cl)c1`, the residual activity came to 74.6%.

As for `O=C1NC(=O)/C(=C/c2ccc3c(c2)OC(F)(F)O3)S1`, the residual activity amounted to 86.7%.

In the next assay the target is MAPK3 (human) (UniProt P27361). Described as above. Particulars: compound 0.5 µM; ATP 10 µM.
Chain of MAPK3 (human) (P27361 whole entry, looked up): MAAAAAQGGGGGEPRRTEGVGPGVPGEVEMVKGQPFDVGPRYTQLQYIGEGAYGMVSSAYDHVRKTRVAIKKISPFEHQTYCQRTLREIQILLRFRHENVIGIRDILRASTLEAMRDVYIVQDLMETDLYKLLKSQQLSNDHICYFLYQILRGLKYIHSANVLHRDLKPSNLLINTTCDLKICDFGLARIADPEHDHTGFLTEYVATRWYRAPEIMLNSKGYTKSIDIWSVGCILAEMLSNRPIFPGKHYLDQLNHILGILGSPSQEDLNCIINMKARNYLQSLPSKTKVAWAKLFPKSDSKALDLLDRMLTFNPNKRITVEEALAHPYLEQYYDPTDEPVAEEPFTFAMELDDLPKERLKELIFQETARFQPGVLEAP
As for `CNc1cc2c(Nc3cccc(Br)c3)ncnc2cn1`, the residual activity was determined as 97.3%.

Turning to `O=C1Nc2ccc(Cl)cc2/C1=C/c1cc(Cl)c(O)c(Cl)c1`, the residual activity stood at 88.2%.

Consider `O=C1NC(=O)/C(=C/c2ccc3c(c2)OC(F)(F)O3)S1`, for which the residual activity was determined as 91.6%.

Another assay has as its target MAPK9 (human) (UniProt P45984). The assay is described as above. The conditions noted are these: compound 0.5 µM; ATP 10 µM.
As to `CNc1cc2c(Nc3cccc(Br)c3)ncnc2cn1`, the residual activity came out at 96.5%.

On to `O=C1Nc2ccc(Cl)cc2/C1=C/c1cc(Cl)c(O)c(Cl)c1`, for which the residual activity worked out at 100%.

For the compound `O=C1NC(=O)/C(=C/c2ccc3c(c2)OC(F)(F)O3)S1`, the residual activity stood at 90.9%.

For another assay, the target named is MAPKAPK2 (human) (UniProt P49137). Described as above. The conditions noted are these: compound 0.5 µM; ATP 10 µM.
Chain of MAPKAPK2 (human) (P49137 whole entry, looked up): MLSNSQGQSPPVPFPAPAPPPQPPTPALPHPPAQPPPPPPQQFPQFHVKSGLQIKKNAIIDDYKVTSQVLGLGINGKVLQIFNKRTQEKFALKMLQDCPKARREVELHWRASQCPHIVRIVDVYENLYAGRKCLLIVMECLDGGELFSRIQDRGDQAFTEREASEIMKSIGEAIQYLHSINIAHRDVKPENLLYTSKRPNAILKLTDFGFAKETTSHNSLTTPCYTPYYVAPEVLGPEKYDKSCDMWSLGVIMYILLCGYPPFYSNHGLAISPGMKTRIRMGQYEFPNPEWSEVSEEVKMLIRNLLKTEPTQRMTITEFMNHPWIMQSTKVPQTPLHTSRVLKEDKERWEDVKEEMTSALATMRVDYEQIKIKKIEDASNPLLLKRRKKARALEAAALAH
Take `CNc1cc2c(Nc3cccc(Br)c3)ncnc2cn1`: the residual activity came out at 99.6%.

For `O=C1Nc2ccc(Cl)cc2/C1=C/c1cc(Cl)c(O)c(Cl)c1`, the residual activity was found to be 100%.

As to `O=C1NC(=O)/C(=C/c2ccc3c(c2)OC(F)(F)O3)S1`, the residual activity came to 94.4%.

The target in a further assay is MELK (human) (UniProt Q14680). The assay is described as above. Particulars: compound 0.5 µM; ATP 10 µM.
Take `CNc1cc2c(Nc3cccc(Br)c3)ncnc2cn1`: the residual activity stood at 91.6%.

On to `O=C1Nc2ccc(Cl)cc2/C1=C/c1cc(Cl)c(O)c(Cl)c1`, for which the residual activity was found to be 83.6%.

With `O=C1NC(=O)/C(=C/c2ccc3c(c2)OC(F)(F)O3)S1`, the residual activity came to 94.4%.

A further assay has as its target MLTK (human) (UniProt Q9NYL2). The description is as above. Particulars: compound 0.5 µM; ATP 10 µM.
With `CNc1cc2c(Nc3cccc(Br)c3)ncnc2cn1`, the residual activity came to 82.3%.

As to `O=C1Nc2ccc(Cl)cc2/C1=C/c1cc(Cl)c(O)c(Cl)c1`, the residual activity stood at 77.4%.

For the compound `O=C1NC(=O)/C(=C/c2ccc3c(c2)OC(F)(F)O3)S1`, the residual activity came to 97.6%.

In a further assay the target is MYO3B (human) (UniProt Q8WXR4). The assay is described as above. The conditions noted are these: compound 0.5 µM; ATP 10 µM.
For the compound `CNc1cc2c(Nc3cccc(Br)c3)ncnc2cn1`, the residual activity was determined as 91.1%.

Take `O=C1Nc2ccc(Cl)cc2/C1=C/c1cc(Cl)c(O)c(Cl)c1`: the residual activity was 17.4%.

Turning to `O=C1NC(=O)/C(=C/c2ccc3c(c2)OC(F)(F)O3)S1`, the residual activity came out at 87.9%.

The next assay addresses NEK1 (human) (UniProt Q96PY6). Described as above. Particulars: compound 0.5 µM; ATP 10 µM.
Take `CNc1cc2c(Nc3cccc(Br)c3)ncnc2cn1`: the residual activity worked out at 70.3%.

Consider `O=C1Nc2ccc(Cl)cc2/C1=C/c1cc(Cl)c(O)c(Cl)c1`, for which the residual activity came out at 81.5%.

On to `O=C1NC(=O)/C(=C/c2ccc3c(c2)OC(F)(F)O3)S1`, for which the residual activity came out at 79.6%.

These data come from the kinase profiling compilation of Christmann-Franck et al. (2016).
